In US12528777B2, “Quinazolinones derivatives for treatment of non-alcoholic fatty liver disease, preparation and use thereof” (Council of Scientific and Industrial Research, priority 2020, dated 2026):
Entries after “also recorded” stand apart in the source; their conditions may differ.

Biological target: COP1 (Homo sapiens, UniProt Q8NHY2)
Test: Western blot of COP1 level in HepG2 cells
Type: cell-based
Settings: 24 hours, dose dependent
Description: HepG2 cells were treated with the compounds 9, 10, 11, 17, 18, 23, 24, 115, 123, 127, 139,107, 171, 179, 73, 187, 211, 215, 219, 223, 232, 238, 241, 244, 258, 299, 308, and 333a, (10 μM for initial screening and 50 nM, 100 nM, 200 nM, 500 nM, 1 μM and 5 μM for dose dependent assays) for 24 hours. After removing media from the cells, the wells were washed with 1×PBS twice to remove any remnant media. Cells were then lysed in lysis buffer containing 50 mM Tris-HCl (pH 7.4), 100 mM NaCl, 1 mM EDTA, 1 mM EGTA, 1% Triton X-100 and protease inhibitor cocktail (Millipore, Billierica, MA, USA). Following centrifugation at 20,000 g for 20 minutes, the protein solution was extracted from the cells. Protein was estimated using Bradford assay. Bradford's reagent (BioRad) was diluted in 1:4 ratio in double distilled water. 2 μl of protein sample was added to 100 μl of the reagent and absorbance was measured at 595 nm. […] of protein was diluted in lysis buffer. 1× loading buffer diluted from 5× stock containing 250 mM Tris-HCl (pH 6.8), 10% SDS, 50% glycerol, 0.1% bromophenol Blue and 10% β-mercaptoethanol was added. The protein samples were then heated at 95° C. for 10 minutes, cooled and centrifuged at 12,000 g for 2 minutes prior to loading.
For western blotting, the proteins were resolved in 10% SDS PAGE (discontinuous buffer system). […]

Sequence of COP1 (Q8NHY2 whole entry): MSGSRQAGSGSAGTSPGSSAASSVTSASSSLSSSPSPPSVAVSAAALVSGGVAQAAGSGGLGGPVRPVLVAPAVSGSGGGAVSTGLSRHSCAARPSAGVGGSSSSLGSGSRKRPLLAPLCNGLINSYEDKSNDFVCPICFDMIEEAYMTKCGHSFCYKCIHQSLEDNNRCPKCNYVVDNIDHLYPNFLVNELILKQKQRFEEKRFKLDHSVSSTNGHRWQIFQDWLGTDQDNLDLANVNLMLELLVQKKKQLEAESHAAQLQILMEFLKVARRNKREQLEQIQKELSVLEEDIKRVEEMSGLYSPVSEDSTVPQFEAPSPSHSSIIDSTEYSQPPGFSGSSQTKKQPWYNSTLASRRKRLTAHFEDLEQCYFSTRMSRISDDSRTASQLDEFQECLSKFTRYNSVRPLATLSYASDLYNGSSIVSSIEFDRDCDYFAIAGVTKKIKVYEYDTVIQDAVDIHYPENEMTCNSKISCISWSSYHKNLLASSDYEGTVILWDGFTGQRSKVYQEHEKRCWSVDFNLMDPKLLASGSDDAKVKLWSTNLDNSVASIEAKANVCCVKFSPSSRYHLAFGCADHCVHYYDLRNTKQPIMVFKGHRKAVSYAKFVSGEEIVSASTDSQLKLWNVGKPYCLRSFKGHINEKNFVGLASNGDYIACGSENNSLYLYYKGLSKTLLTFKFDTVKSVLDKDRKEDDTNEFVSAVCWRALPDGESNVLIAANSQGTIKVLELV

Compound: COCCn1c(CN2CCCCC2)nc2ccc(NC(=O)Nc3cccc(C(C)=O)c3)cc2c1=O [Compound 238, 1-(3-acetylphenyl)-3-(3-(2-methoxyethyl)-4-oxo-2-(piperidin-1-ylmethyl)-3,4-dihydroquinazolin-6-yl)urea]
- COP1 level in HepG2 cells: most potent in increasing ATGL and COP1 levels; also recorded: increase in ATGL and COP1 levels
